# Laboratory results published in patent US20240262842A1, “SMALL MOLECULE INHIBITORS OF KRAS G12C MUTANT” (Merck Sharp & Dohme LLC, priority 2021, published 2024).
# pIC50: −log10 of the molar value.
# Molecular target: biotinylated KRAS G12C protein (GMP-PNP loaded) and GST-tagged Ras binding domain of c-RAF (Homo sapiens, UniProt P01116, C118S/C51S/C80L/G12C)
# Experiment: RAS:RAF-RBD binding assay (TR-FRET)
# Conditions: 30-minute incubation of compound with KRAS G12C before RAF-RBD; Table 4; read-out: IC50
row,Compound,pIC50
1,"Cc1nc2c3c(c(C(F)(F)F)cc2n1C)-c1cccn2c(C(=O)c4cc(F)c(NC(=O)/C=C/CN5CC(F)C5)c(F)c4)cc(c12)CCN3C [Example 285, (E)-N-(2,6-difluoro-4-(9,10,12-trimethyl-7-(trifluoromethyl)-9,12,13,14-tetrahydroimidazo[4″,5″:5′,6′]benzo[1′,2′:2,3]azocino[4,5,6-hi]indolizine-2-carbonyl)phenyl)-4-(3-fluoroazetidin-1-yl)but-2-enamide]",7.07
2,"CN1CCc2cc(C(=O)c3cc(F)c(NC(=O)/C=C/CNC4(C)COC4)c(F)c3)n3cccc(c23)-c2c(C(F)(F)F)cc3nn(C)cc3c21 (single isomer, unassigned) [Example 282, (E)-N-(4-((4-(10,12-dimethyl-7-(trifluorometh-yl)-10,12,13,14-tetrahydro-indolizino[8′,1′:4,5,6]-azocino[2,3-e]indazole-2-carbonyl)-2,6-difluoro-phenyl)amino)-4-oxobut-2-en-1-yl)-3-methyloxetan-3-aminium 2,2,2-trifluoro-acetate]",7.24
3,"COCc1nc2c3c(c(OC)cc2n1C)-c1cccn2c(C(=O)c4cc(F)c(NC(=O)/C=C/[C@@H]5C[C@@H](F)CN5)c(F)c4)cc(c12)CCN3C (atropisomer, axis not shown) [Example 293, (E)-N-(2,6-difluoro-4-(7-methoxy-10-(methoxymethyl)-9,12-dimethyl-9,12,13,14-tetrahydroimidazo[4″,5″:5′,6′]benzo[1′,2′:2,3]azocino[4,5,6-hi]indolizine-2-carbonyl)phenyl)-3-((2S,4R)-4-fluoropyrrolidin-2-yl)acrylamide]",7.79
4,"Cc1nc2c3c(c(C(F)(F)F)cc2n1C)-c1cccn2c(C(=O)c4cc(F)c(NC(=O)/C=C/CN5CCC[C@@]5(C)C(C)O)c(F)c4)cc(c12)CCO3 (single isomer, unassigned) [Example 259]",7.85
5,"Cc1nc2c3c(c(C(F)(F)F)cc2n1C)-c1cccn2c(C(=O)c4cc(F)c(NC(=O)/C=C/CN5C[C@H](O)[C@@H](F)C5)c(F)c4)cc(c12)CCO3 [Example 275, (3S,4S)-1-((E)-4-((4-(9,10-dimethyl-7-(trifluorometh-yl)-13,14-dihydro-9H-imidazo[4″,5″:5′,6′]benzo-[1′,2′:2,3]oxocino[4,5,6-hi]indolizine-2-carbonyl)-2,6-difluorophenyl)amino)-4-oxobut-2-en-1-yl)-3-fluoro-4-hydroxypyrrol-idin-1-ium 2,2,2-trifluoro-acetate]",7.24
6,"Cc1nc2c3c(c(C(F)(F)F)cc2n1C)-c1cccn2c(C(=O)c4cc(F)c(NC(=O)/C=C/CN5CCC5CC(C)(C)O)c(F)c4)cc(c12)CCN3C (single isomer, unassigned) [Example 298, (E)-1-(4-((2,6-difluoro-4-(9,10,12-trimethyl-7-(trifluoromethyl)-9,12,13,14-tetrahydro-imidazo[4″,5″:5′,6′]benzo-[1′,2′:2,3]azocino[4,5,6-hi]indolizine-2-carbonyl)-phenyl)amino)-4-oxobut-2-en-1-yl)-2-(2-hydroxy-2-methylpropyl)azetidin-1-ium 2,2,2-trifluoro-acetate]",7.38
7,"CO[C@H]1CCCC[C@H]1NC/C=C/C(=O)Nc1c(F)cc(C(=O)c2cc3c4c(cccn24)-c2c(C(F)(F)F)cc4c(nc(C)n4C)c2OCC3)cc1F [Example 268, (E)-N-(4-(9,10-dimethyl-7-(trifluoromethyl)-13,14-dihydro-9H-imidazo-[4″,5″:5′,6′]benzo[1′,2′: 2,3]oxocino[4,5,6-hi]-indolizine-2-carbonyl)-2,6-difluorophenyl)-4-(((1R,2S)-2-methoxy-cyclohexyl)amino)but-2-enamide]",7.89
8,"(Z)-N-(4-((4-(9,10-dimeth- yl-7-(trifluoromethyl)- 13,14-dihydro-9H-imid- azo[4″,5″:5′6′]benzo- [1′,2′:2,3]oxocino[4,5,6- hi]indolizine-2-carbonyl)- 2,6-difluorophenyl)amino)- 3-fluoro-4-oxobut-2-en-1- yl)-1-methylcyclopropan- 1-aminium2,2,2-trifluoro- acetate [Example 261]",7.65
9,"CO[C@@H]1CCCC[C@@H]1NC/C=C/C(=O)Nc1c(F)cc(C(=O)c2cc3c4c(cccn24)-c2c(C(F)(F)F)cc4c(nc(C)n4C)c2OCC3)cc1F [Example 266, (E)-N-(4-(9,10-dimethyl-7-(trifluoromethyl)-13,14-dihydro-9H-imidazo-[4″,5″:5′,6′]benzo[1′,2′: 2,3]oxocino[4,5,6-hi]-indolizine-2-carbonyl)-2,6-difluorophenyl)-4-(((1S,2R)-2-methoxy-cyclohexyl)amino)but-2-enamide]",7.79
10,"COCc1nc2c3c(c(OC)cc2n1C)-c1cccn2c(C(=O)c4cc(F)c(NC(=O)/C=C/CNCC5(F)CC5)c(F)c4)cc(c12)CCN3C (atropisomer, axis not shown) [Example 287, (E)-N-(2,6-difluoro-4-(7-methoxy-10-(methoxymethyl)-9,12-dimethyl-9,12,13,14-tetrahydroimidazo[4″,5″:5′,6′]benzo[1′,2′:2,3]azocino[4,5,6-hi]indolizine-2-carbonyl)phenyl)-4-(((1-fluorocyclopropyl)methyl)amino)but-2-enamide]",7.78
11,Cc1nc2c3c(c(C(F)(F)F)cc2n1C)-c1cccn2c(C(=O)c4cc(F)c(NC(=O)/C=C/CN[C@@H]5CCCC[C@@H]5O)c(F)c4)cc(c12)CCO3 [Example 264],8.13
12,"Cc1nc2c3c(c(C(F)(F)F)cc2n1C)-c1cccn2c(C(=O)c4cc(F)c(NC(=O)/C=C/C5CCCN5)c(F)c4)cc(c12)CCO3 (single isomer, unassigned) [Example 251, (E)-N-(4-(9,10-dimethyl-7-(trifluoromethyl)-13,14-dihydro-9H-imidazo-[4″,5″:5′,6′]benzo[1′,2′: 2,3]oxocino[4,5,6-hi]-indolizine-2-carbonyl)-2,6-difluorophenyl)-3-(pyrrolidin-2-yl)acryl-amide]",7.78
13,"COCc1nc2c3c(c(OC)cc2n1C)-c1cccn2c(C(=O)c4cc(F)c(NC(=O)/C=C/CNC(C)(C)C5CC5)c(F)c4)cc(c12)CCN3C [Example 290, mono((E)-2-(4-(4-((2-cyclopropylpropan-2-yl)-ammonio)but-2-enamido)-3,5-difluorobenzoyl)-7-methoxy-10-(methoxy-methyl)-9,12-dimethyl-9,12,13,14-tetrahydro-imidazo[4″,5″:5′,6′]benzo-[1′,2′:2,3]azocino[4,5,6-hi]indolizin-11-ium) mono(2,2,2-trifluoro-acetate)]",7.95
14,"(2S)-1-((Z)-4-((4-(9,10- dimethyl-7-(trifluorometh- yl)-13,14-dihydro-9H- imidazo[4″,5″:5′,6′]benzo- [1′,2′:2,3loxocino[4,5,6- hi]indolizine-2-carbonyl)- 2,6-difluorophenyl)amino)- 3-fluoro-4-oxobut-2-en-1- yl)-2-(hydroxymethyl)- azetidin-1-ium2,2,2- trifluoroacetate [Example 262]",7.82
15,"Cc1nc2c3c(c(C(F)(F)F)cc2n1C)-c1cccn2c(C(=O)c4cc(F)c(NC(=O)/C=C/CNCC5(F)CC5)c(F)c4)cc(c12)CCO3 [Example 276, (E)-4-((4-(9,10-dimethyl-7-(trifluoromethyl)-13,14-dihydro-9H-imidazo-[4″,5″:5′,6′]benzo[1′,2′: 2,3]oxocino[4,5,6-hi]-indolizine-2-carbonyl)-2,6-difluorophenyl)-amino)-N-((1-fluorocyclo-propyl)methyl)-4-oxobut-2-en-1-aminium 2,2,2-trifluoroacetate]",8.09
